Reference: patent US20260374766A1, “METHODS FOR TREATING CANCER” (Antares Therapeutics, Inc., priority 2022, published 2026)
pIC50, pKd: −log10 of the molar value.

What was measured:
H1299 p53 R273H = assay: Cell Proliferation Assay (CellTiter-Glo, CTG), H1299 p53 R273H (NClH1299-inducible p53 R273H); format: cell-based; settings: Homo sapiens, NCI-H1299, 120 h, CellTiter-Glo, H1299 p53 R273H, 5 days
Method in brief: (§1)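 NClH1299 lines stably transduced with Tet-inducible p53 Y220C or R273H, plus NUGC3, were treated with compound for 5 days at 250-500 cells/well. IC50 derived from CellTiter-Glo luminescent signal after 10 min room-temperature incubation.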

NUGC3 p53 Y220C = assay: Cell Proliferation Assay (CellTiter-Glo, CTG), NUGC3 p53 Y220C; format: cell-based; settings: Homo sapiens, NUGC-3, 120 h, CellTiter-Glo, NUGC3 p53 Y220C, 5 days
Method in brief: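 Tet-One inducible p53 Y220C or R273H constructs were stably introduced into NCI-H1299 by lentiviral transduction; NUGC3 was used as is. Cells (250-500 per well) were exposed to compound for 5 days, then CellTiter-Glo was added for 10 min at room temperature and IC50 was calculated from luminescence.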

[1] = target: T1, p53 Y220C mutant protein (amino acid residues 94-293) (Homo sapiens, UniProt P04637, Y220C); assay: Surface Plasmon Resonance (SPR) assay, Kd_kinetic; format: binding; settings: SPR, kinetic KD, p53 Y220C; read-out: SPR P53 Y220C KD kinetic
T1 construct: p53 Y220C mutant protein (amino acid residues 94-293)
Method in brief: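 Biacore 8K SPR; 16 or 20 °C; Tris 50 mM pH 7.5, NaCl 100 mM, DTT 1 mM, Brij35 0.01%, Tween-20 0.05%, DMSO 1%. Kd_kinetic by 1:1 fit.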

H1299 p53 Y220C = assay: Cell Proliferation Assay (CellTiter-Glo, CTG), H1299 p53 Y220C (NClH1299-inducible p53 Y220C); format: cell-based; settings: Homo sapiens, NCI-H1299, 120 h, CellTiter-Glo, H1299 p53 Y220C, 5 days
Method in brief: as §1

[2] = target: T1, p53 Y220C mutant protein (amino acid residues 94-293); assay: Thermal Shift Assay (TSA), dTM; format: binding; settings: thermal shift; for ΔTm at 10 µM: 10 uM compound, read-out: TSA P53 Y220C dTM (10 uM); for ΔTm at 100 µM: 100 uM compound, read-out: TSA P53 Y220C dTM (100 uM)
Method in brief: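 First, the mutant DNA-binding domain (5 μM) was preincubated 3 hours at 20 °C with compound at 10 μM or 100 μM. Next, the sample was heated from 30 °C to 50 °C at 0.03 °C/second in the presence of Sypro Orange. Finally, TM was obtained from a two-state Boltzmann fit.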

p53 Y220C = p53 Y220C (Homo sapiens, UniProt P04637, Y220C); assay: Luciferase Reporter Assay (Luc), p53 response element, NClH1299 cells with inducible p53 Y220C; format: cell-based; settings: luciferase reporter, NClH1299 inducible p53 Y220C, 6 hour; for Emax: 10 uM tool compound as positive control; for AC50: read-out: Luc P53 Y220C AC50
Method in brief: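 Luciferase activity is measured directly after One-Glo addition and a 5-minute room-temperature shake. Before that, cells plated at 5,000 per well receive doxycycline at 0.5 ug/mL for 24 hours, followed by compound for 6 hours.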

pIC50 (H1299 p53 R273H)	pKd [1]	pIC50 (H1299 p53 Y220C)	ΔTm at 10 µM [2]	ΔTm at 100 µM [2]	Emax (p53 Y220C)	AC50 (p53 Y220C)	Compound	pIC50 (NUGC3 p53 Y220C)
≤ 5.00	> 8.00	> 6.12	5 to 10 °C	≥ 10 °C	80 to 90%	< 750 nM	CNC(=O)c1ccc(NCC#Cc2nc3c(N[C@@H]4CCOC[C@@H]4F)cccn3c2SC(F)(F)F)c(OC)c1 [Example 101, 4-{[3-(8-{[(3R,4R)-3-fluorooxan-4-yl]amino}-3-[(trifluoromethyl)sulfanyl]imidazo[1,2-a]pyridin-2-yl)prop-2-yn-1-yl]amino}-3-methoxy-N-methylbenzamide]	> 6.12
≤ 5.00	> 8.00	> 6.12	≥ 10 °C	≥ 10 °C	70 to 80%	< 750 nM	CNC(=O)c1ccc(NCC#Cc2nc3c(N[C@@H]4CNC[C@@H]4F)cccn3c2SC(F)(F)F)c(OC)c1 [Example 102, 4-{[3-(8-{[(3R,4S)-4-fluoropyrrolidin-3-yl]amino}-3-[(trifluoromethyl)sulfanyl]imidazo[1,2-a]pyridin-2-yl)prop-2-yn-1-yl]amino}-3-methoxy-N-methylbenzamide]	> 6.12
≤ 5.00	> 8.00	> 6.12	≥ 10 °C	≥ 10 °C	80 to 90%	< 750 nM	CNC(=O)c1ccc(NCC#Cc2nc3c(N[C@@H]4CN(C)C[C@@H]4F)cccn3c2SC(F)(F)F)c(OC)c1 [Example 103, 4-{[3-(8-{[(3R,4S)-4-fluoro-1-methylpyrrolidin-3-yl]amino}-3-[(trifluoromethyl)sulfanyl]imidazo[1,2-a]pyridin-2-yl)prop-2-yn-1-yl]amino}-3-methoxy-N-methylbenzamide]	> 6.12
5.00 to 5.10	> 8.00	> 6.12	≥ 10 °C	≥ 10 °C	80 to 90%	< 750 nM	CNC(=O)c1ccc(NCC#Cc2nc3c(N[C@@H]4CCN(C)C[C@@H]4F)cccn3c2SC(F)(F)F)c(OCCOC)c1 [Example 104, 4-{[3-(8-{[(3S,4R)-3-fluoro-1-methylpiperidin-4-yl]amino}-3-[(trifluoromethyl)sulfanyl]imidazo[1,2-a]pyridin-2-yl)prop-2-yn-1-yl]amino}-3-(2-methoxyethoxy)-N-methylbenzamide]	> 6.12
5.00 to 5.10	> 8.00	> 6.12	≥ 10 °C	≥ 10 °C	80 to 90%	< 750 nM	CNC(=O)c1ccc(NCC#Cc2nc3c(N[C@@H]4CCN(C)C[C@@H]4F)cccn3c2SC(F)(F)F)c(OC(F)F)c1 [Example 105, 3-(difluoromethoxy)-4-{[3-(8-{[(3S,4R)-3-fluoro-1-methylpiperidin-4-yl]amino}-3-[(trifluoromethyl)sulfanyl]imidazo[1,2-a]pyridin-2-yl)prop-2-yn-1-yl]amino}-N-methylbenzamide]	> 6.12
≤ 5.00	> 8.00	> 6.12	5 to 10 °C	≥ 10 °C	70 to 80%	< 750 nM	CNC(=O)c1ccc(NCC#Cc2nc3c(N[C@@H]4CCN(C)C[C@@H]4F)cccn3c2SC(F)F)c(OC)c1 [Example 106, 4-[(3-{3-[(difluoromethyl)sulfanyl]-8-{[(3S,4R)-3-fluoro-1-methylpiperidin-4-yl]amino}imidazo[1,2-a]pyridin-2-yl}prop-2-yn-1-yl)amino]-3-methoxy-N-methylbenzamide]	> 6.12
> 5.30	> 8.00	> 6.12	≥ 10 °C	≥ 10 °C	80 to 90%	< 750 nM	CNC(=O)c1ccc(OC)c(NCC#Cc2nc3c(N[C@@H]4CCN(C)C[C@@H]4F)cccn3c2SC(F)(F)F)c1 [Example 107, 3-{[3-(8-{[(3S,4R)-3-fluoro-1-methylpiperidin-4-yl]amino}-3-[(trifluoromethyl)sulfanyl]imidazo[1,2-a]pyridin-2-yl)prop-2-yn-1-yl]amino}-4-methoxy-N-methylbenzamide]	> 6.12
5.00 to 5.10	> 8.00	> 6.12	≥ 10 °C	≥ 10 °C	80 to 90%	< 750 nM	CCNC(=O)c1ccc(OC)c(NCC#Cc2nc3c(N[C@@H]4CCN(C)C[C@@H]4F)cccn3c2SC(F)(F)F)c1 [Example 108, N-ethyl-3-{[3-(8-{[(3S,4R)-3-fluoro-1-methylpiperidin-4-yl]amino}-3-[(trifluoromethyl)sulfanyl]imidazo[1,2-a]pyridin-2-yl)prop-2-yn-1-yl]amino}-4-methoxybenzamide]	> 6.12
5.00 to 5.10	> 8.00	> 6.12	≥ 10 °C	≥ 10 °C	80 to 90%	< 750 nM	COc1ccc(C(=O)NC2CC2)cc1NCC#Cc1nc2c(N[C@@H]3CCN(C)C[C@@H]3F)cccn2c1SC(F)(F)F [Example 109, N-cyclopropyl-3-{[3-(8-{[(3S,4R)-3-fluoro-1-methylpiperidin-4-yl]amino}-3-[(trifluoromethyl)sulfanyl]imidazo[1,2-a]pyridin-2-yl)prop-2-yn-1-yl]amino}-4-methoxybenzamide]	> 6.12
5.10 to 5.30	> 8.00	> 6.12		≥ 10 °C	80 to 90%	< 750 nM	COc1cc2c(cc1NCC#Cc1nc3c(N[C@@H]4CCN(C)C[C@@H]4F)cccn3c1CC(F)(F)F)CCNC2=O [Example 110, 6-{[3-(8-{[(3S,4R)-3-fluoro-1-methylpiperidin-4-yl]amino}-3-(2,2,2-trifluoroethyl)imidazo[1,2-a]pyridin-2-yl)prop-2-yn-1-yl]amino}-7-methoxy-3,4-dihydro-2H-isoquinolin-1-one]	> 6.12
≤ 5.00	> 8.00	5.82 to 6.12		≥ 10 °C	> 90%	750 to 1500 nM	CNC(=O)c1cc(OC)c(NCC#Cc2nc3c(N[C@@H]4CCN(C)C[C@@H]4F)cccn3c2CC(F)(F)F)cc1Cl [Example 111, 2-chloro-4-{[3-(8-{[(3S,4R)-3-fluoro-1-methylpiperidin-4-yl]amino}-3-(2,2,2-trifluoroethyl)imidazo[1,2-a]pyridin-2-yl)prop-2-yn-1-yl]amino}-5-methoxy-N-methylbenzamide]	5.82 to 6.12
≤ 5.00	6.00 to 7.00	< 5.52		5 to 10 °C	70 to 80%	> 3000 nM	CN1CC[C@@H](Nc2cccn3c(CC(F)(F)F)c(C#CCNc4ccccc4)nc23)[C@@H](F)C1 [Example 112, (3S,4R)-3-fluoro-1-methyl-N-{2-[3-(phenylamino)prop-1-yn-1-yl]-3-(2,2,2-trifluoroethyl)imidazo[1,2-a]pyridin-8-yl}piperidin-4-amine]	< 5.52
5.10 to 5.30	7.00 to 8.00	5.82 to 6.12		≥ 10 °C	< 70%	1500 to 3000 nM	COCCN1CCC(Nc2cccn3c(CC(F)(F)F)c(C#CCNc4ccc(S(C)(=O)=O)cc4OC)nc23)CC1 [Example 113, N-(2-{3-[(4-methanesulfonyl-2-methoxyphenyl)amino]prop-1-yn-1-yl}-3-(2,2,2-trifluoroethyl)imidazo[1,2-a]pyridin-8-yl)-1-(2-methoxyethyl)piperidin-4-amine]	5.82 to 6.12
5.10 to 5.30	7.00 to 8.00	< 5.52		≥ 10 °C	70 to 80%	> 3000 nM	COc1cc(S(C)(=O)=O)ccc1NCC#Cc1nc2c(NC3CC4(C3)CN(C)C4)cccn2c1CC(F)(F)F [Example 114, N-(2-{3-[(4-methanesulfonyl-2-methoxyphenyl)amino]prop-1-yn-1-yl}-3-(2,2,2-trifluoroethyl)imidazo[1,2-a]pyridin-8-yl)-2-methyl-2-azaspiro[3.3]heptan-6-amine]	5.52 to 5.82
